In the supplement of paper PMC10883282:
± gives the standard deviation of the averaged measurements.

Columns and labels:
Experiment in all cases: relative viability vs DMSO control (72 h) (fraction); higher = more viable cells
SW982 = system: SW982
Method in brief: (§1)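 Densities for seeding sarcoma cell lines into 384-well plates were set to give 80–90% confluence. After 24 h, 2.5 µl of serially diluted compound from source plates of 10 mM to 0.0002 mM went in, and plates stayed 72 h at 37 °C in 5% CO2 with 0.1% DMSO vehicle and a 5 µM positive control. Percent growth from ATPLite readings, averaged over up to triplicate wells, served as relative viability, rescaled so 1 means full and 0 means none.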

A204 = system: A204
Method in brief: as §1

MES-SA = system: MES-SA
Method in brief: as §1

VA-ES-BJ = system: VA-ES-BJ
Method in brief: as §1

SK-ES-1 = system: SK-ES-1
Method in brief: as §1

CN(C)C/C=C/C(=O)Nc1cc2c(Nc3ccc(F)c(Cl)c3)ncnc2cc1O[C@H]1CCOC1 [Afatinib]
relative viability
Conditions | A204 | MES-SA | SK-ES-1 | SW982 | VA-ES-BJ
0.00017 µM | 0.993 ± 0.055 | 0.967 ± 0.036 | 1.01 ± 0.04 | 1.017 ± 0.0088 | 1.09 ± 0.064
0.00051 µM | 1 ± 0.053 | 0.955 ± 0.039 | 1.05 ± 0.042 | 1.03 ± 0.02 | 1.1 ± 0.052
0.00152 µM | 1.03 ± 0.042 | 0.948 ± 0.037 | 1.04 ± 0.024 | 1.03 ± 0.022 | 1.06 ± 0.042
0.00457 µM | 0.976 ± 0.085 | 0.947 ± 0.035 | 0.988 ± 0.027 | 1.06 ± 0.023 | 1.03 ± 0.055
0.01372 µM | 1.01 ± 0.081 | 0.934 ± 0.041 | 1.03 ± 0.007 | 1.05 ± 0.034 | 0.983 ± 0.04
0.04115 µM | 0.945 ± 0.051 | 0.887 ± 0.027 | 0.959 ± 0.053 | 1.02 ± 0.041 | 0.974 ± 0.064
0.1235 µM | 0.859 ± 0.046 | 0.885 ± 0.038 | 0.858 ± 0.034 | 0.914 ± 0.051 | 0.968 ± 0.064
0.3704 µM | 0.595 ± 0.067 | 0.725 ± 0.024 | 0.676 ± 0.022 | 0.659 ± 0.0084 | 0.911 ± 0.022
1.111 µM | 0.34 ± 0.017 | 0.452 ± 0.018 | 0.306 ± 0.013 | 0.286 ± 0.0054 | 0.573 ± 0.027
3.333 µM | 0.175 ± 0.021 | 0.283 ± 0.04 | 0.117 ± 0.019 | 0.183 ± 0.0057 | 0.351 ± 0.036
10 µM | 0.00583 ± 0.0022 | 0.24 ± 0.099 | 0.113 ± 0.023 | 0.219 ± 0.0079 | 0.207 ± 0.0046

COc1cc(Nc2ncc3c(n2)-c2ccc(Cl)cc2C(c2c(F)cccc2OC)=NC3)ccc1C(=O)O [Alisertib]
relative viability
Conditions | A204 | MES-SA | SK-ES-1 | SW982 | VA-ES-BJ
0.00017 µM | 1.07 ± 0.042 | 0.914 ± 0.021 | 1.01 ± 0.071 | 1.01 ± 0.021 | 0.995 ± 0.029
0.00051 µM | 1.073 ± 0.009 | 0.932 ± 0.031 | 1.05 ± 0.024 | 1.01 ± 0.038 | 0.997 ± 0.029
0.00152 µM | 1.07 ± 0.022 | 0.9332 ± 0.0036 | 1.05 ± 0.034 | 1.03 ± 0.049 | 0.984 ± 0.052
0.00457 µM | 1.03 ± 0.014 | 0.933 ± 0.032 | 1.01 ± 0.014 | 1.02 ± 0.044 | 0.992 ± 0.019
0.01372 µM | 1.07 ± 0.035 | 0.9174 ± 0.0058 | 0.965 ± 0.051 | 1.03 ± 0.059 | 0.969 ± 0.042
0.04115 µM | 1.06 ± 0.036 | 0.621 ± 0.018 | 0.748 ± 0.035 | 0.968 ± 0.045 | 0.919 ± 0.015
0.1235 µM | 0.882 ± 0.12 | 0.363 ± 0.005 | 0.197 ± 0.012 | 0.583 ± 0.031 | 0.747 ± 0.0085
0.3704 µM | 0.796 ± 0.037 | 0.353 ± 0.0075 | 0.0886 ± 0.0037 | 0.464 ± 0.013 | 0.604 ± 0.063
1.111 µM | 0.768 ± 0.065 | 0.328 ± 0.014 | 0.0443 ± 0.0024 | 0.37 ± 0.052 | 0.571 ± 0.03
3.333 µM | 0.7276 ± 0.0066 | 0.325 ± 0.014 | 0.0464 ± 0.0026 | 0.348 ± 0.0075 | 0.523 ± 0.027
10 µM | 0.711 ± 0.045 | 0.316 ± 0.011 | 0.0555 ± 0.0075 | 0.361 ± 0.07 | 0.505 ± 0.03

CCS(=O)(=O)N1CC(CC#N)(n2cc(-c3ncnc4[nH]ccc34)cn2)C1 [Baricitinib]
relative viability
Conditions | A204 | MES-SA | SK-ES-1 | SW982 | VA-ES-BJ
0.00017 µM | 1.06 ± 0.053 | 0.928 ± 0.015 | 0.959 ± 0.027 | 0.981 ± 0.043 | 1.02 ± 0.05
0.00051 µM | 1.04 ± 0.037 | 0.936 ± 0.037 | 1.01 ± 0.012 | 0.983 ± 0.026 | 1.01 ± 0.038
0.00152 µM | 1.05 ± 0.03 | 0.945 ± 0.047 | 1.004 ± 0.01 | 0.976 ± 0.02 | 1.02 ± 0.055
0.00457 µM | 1.05 ± 0.043 | 0.942 ± 0.013 | 0.986 ± 0.053 | 0.985 ± 0.053 | 1.03 ± 0.023
0.01372 µM | 1.03 ± 0.018 | 0.95 ± 0.018 | 0.9898 ± 0.0065 | 1.0047 ± 0.0004 | 1.05 ± 0.053
0.04115 µM | 1.04 ± 0.021 | 0.929 ± 0.037 | 0.987 ± 0.061 | 0.98 ± 0.023 | 1.03 ± 0.021
0.1235 µM | 1.02 ± 0.022 | 0.935 ± 0.028 | 0.987 ± 0.063 | 0.987 ± 0.02 | 1.03 ± 0.038
0.3704 µM | 1.01 ± 0.022 | 0.929 ± 0.026 | 0.958 ± 0.043 | 0.993 ± 0.021 | 1.03 ± 0.015
1.111 µM | 0.971 ± 0.051 | 0.893 ± 0.033 | 1.04 ± 0.034 | 0.98 ± 0.044 | 1.04 ± 0.021
3.333 µM | 0.934 ± 0.046 | 0.83 ± 0.013 | 1.05 ± 0.019 | 0.966 ± 0.021 | 1.06 ± 0.018
10 µM | 0.83 ± 0.013 | 0.753 ± 0.033 | 1.01 ± 0.054 | 0.748 ± 0.034 | 0.996 ± 0.025

COc1cc(N2CCC(N3CCN(C)CC3)CC2)ccc1Nc1ncc(Cl)c(Nc2ccccc2P(C)(C)=O)n1 [Brigatinib]
relative viability
Conditions | A204 | MES-SA | SK-ES-1 | SW982 | VA-ES-BJ
0.00017 µM | 1.06 ± 0.018 | 0.864 ± 0.025 | 0.96 ± 0.048 | 1.03 ± 0.015 | 0.946 ± 0.028
0.00051 µM | 1.08 ± 0.038 | 0.843 ± 0.012 | 0.986 ± 0.059 | 1.03 ± 0.024 | 0.945 ± 0.045
0.00152 µM | 1.03 ± 0.014 | 0.866 ± 0.013 | 0.971 ± 0.033 | 1.03 ± 0.011 | 0.943 ± 0.072
0.00457 µM | 1.06 ± 0.022 | 0.893 ± 0.038 | 0.973 ± 0.07 | 1.01 ± 0.03 | 0.941 ± 0.029
0.01372 µM | 1.04 ± 0.03 | 0.859 ± 0.024 | 1 ± 0.038 | 0.954 ± 0.012 | 0.983 ± 0.05
0.04115 µM | 1.03 ± 0.083 | 0.894 ± 0.034 | 0.951 ± 0.026 | 0.869 ± 0.062 | 0.91 ± 0.053
0.1235 µM | 1.06 ± 0.091 | 0.956 ± 0.068 | 0.825 ± 0.021 | 0.695 ± 0.026 | 0.865 ± 0.04
0.3704 µM | 0.991 ± 0.065 | 1.01 ± 0.064 | 0.496 ± 0.028 | 0.383 ± 0.013 | 0.662 ± 0.029
1.111 µM | 0.692 ± 0.031 | 0.948 ± 0.053 | 0.251 ± 0.015 | 0.122 ± 0.0045 | 0.272 ± 0.016
3.333 µM | 0.262 ± 0.032 | 0.385 ± 0.026 | 0.0717 ± 0.0038 | 0.00817 ± 0.002 | 0.144 ± 0.0073
10 µM | 0.0135 ± 0.0034 | 0.135 ± 0.0083 | 0.0369 ± 0.0031 | 0.00797 ± 0.0024 | 0.125 ± 0.0058
